According to patent publication US20170334899A1, “AMINO-SUBSTITUTED ISOTHIAZOLES” (Bayer Pharma Aktiengesellschaft, priority 2014, published 2017):

Molecular target: T1, human kinase Mps-1 (Homo sapiens, UniProt P33981)
T1 construct: N-terminally GST-tagged human full length recombinant Mps-1 kinase; GST (N); purchased Invitrogen, Karslruhe, Germany PV4071
T1 sequence (P33981 1-857): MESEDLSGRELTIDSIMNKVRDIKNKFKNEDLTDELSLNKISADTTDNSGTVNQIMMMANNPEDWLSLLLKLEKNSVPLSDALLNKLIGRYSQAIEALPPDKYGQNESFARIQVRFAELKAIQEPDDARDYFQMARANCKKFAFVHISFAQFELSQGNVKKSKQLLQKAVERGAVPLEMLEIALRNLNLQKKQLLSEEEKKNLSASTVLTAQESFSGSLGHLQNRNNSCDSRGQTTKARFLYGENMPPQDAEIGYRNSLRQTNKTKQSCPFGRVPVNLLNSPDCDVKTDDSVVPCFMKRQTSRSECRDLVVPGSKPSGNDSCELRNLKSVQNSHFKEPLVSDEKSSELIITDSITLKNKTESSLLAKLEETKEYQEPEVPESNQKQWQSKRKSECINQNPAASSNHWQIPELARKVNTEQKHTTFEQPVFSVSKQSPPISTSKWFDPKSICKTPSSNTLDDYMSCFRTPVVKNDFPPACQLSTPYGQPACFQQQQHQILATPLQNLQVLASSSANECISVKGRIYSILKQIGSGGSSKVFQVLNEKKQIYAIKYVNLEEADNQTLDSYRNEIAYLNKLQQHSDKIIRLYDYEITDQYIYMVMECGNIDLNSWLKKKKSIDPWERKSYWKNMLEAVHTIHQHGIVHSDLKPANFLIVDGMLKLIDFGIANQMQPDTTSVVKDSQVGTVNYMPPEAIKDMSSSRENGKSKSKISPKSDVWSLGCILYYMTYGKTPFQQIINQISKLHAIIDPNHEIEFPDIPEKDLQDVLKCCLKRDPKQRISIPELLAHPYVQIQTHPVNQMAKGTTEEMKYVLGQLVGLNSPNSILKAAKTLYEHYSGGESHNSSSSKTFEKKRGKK
Assay: Mps-1 kinase assay (TR-FRET)
Assay type: biochemical
Settings: Mps-1 TR-FRET kinase assay; avg; read-out: Mps1 avg (IC50 [mol/l])
Outline: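 GST-tagged full-length recombinant human Mps-1 (~0.5 nM) pre-incubated 15 min with compound, then reacted 60 min at 22 °C with 10 μM ATP and 1 μM biotinylated peptide in Hepes pH 7.7 buffer. EDTA-stopped; TR-FRET (Eu anti-phospho-Ser/Thr to SA-XLent) 665/620 nm ratio normalised to no-inhibitor and no-enzyme controls.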

| SMILES | IC50 [µM] |
| --- | --- |
| CCN1CC[C@H](Oc2ccc(NC(=O)c3c(C)nsc3Nc3cnc(C(F)(F)F)cn3)cn2)[C@@H](F)C1 [Example 365, N-(6-{[(3S,4S)-1-ethyl-3-fluoropiperidin-4-yl]oxy}pyridin-3-yl)-3-methyl-5-{[5-(trifluoromethyl)pyrazin-2-yl]amino}-1,2-thiazole-4-carboxamide] | > 20 |
| Cc1nsc(Nc2cnc(C(F)(F)F)cn2)c1C(=O)Nc1ccc(OCCN(C)CC(F)F)nc1 [Example 349, N-(6-{2-[(2,2-difluoroethyl)(methyl)amino]ethoxy}pyridin-3-yl)-3-methyl-5-{[5-(trifluoromethyl)pyrazin-2-yl]amino}-1,2-thiazole-4-carboxamide] | ≥ 20 |
| Cc1nsc(Nc2ccc(C#N)cn2)c1C(=O)Nc1ccc(OC2CCNCC2)nc1 [Example 28, 5-[(5-Cyanopyridin-2-yl)amino]-3-methyl-N-[6-(piperidin-4-yloxy)pyridin-3-yl]-1,2-thiazole-4-carboxannide] | ≥ 20 |
| Cc1nsc(Nc2cnc(C(F)(F)F)cn2)c1C(=O)Nc1ccc(O[C@H]2CCN(CC(F)(F)F)C[C@@H]2F)nc1 [Example 363, N-(6-{[(3S,4S)-3-fluoro-1-(2,2,2-trifluoroethyl)piperidin-4-yl]oxy}pyridin-3-yl)-3-methyl-5-{[5-(trifluoromethyl)pyrazin-2-yl]amino}-1,2-thiazole-4-carboxamide] | > 20 |
| Cc1nsc(Nc2cnc(C(F)(F)F)cn2)c1C(=O)Nc1ccc(F)c(OCC2CCCN(CC(F)(F)F)C2)c1 (centres unmarked) [Example 337, N-(4-fluoro-3-{[1-(2,2,2-trifluoroethyl)piperidin-3-yl]methoxy}phenyl)-3-methyl-5-{[5-(trifluoromethyl)pyrazin-2-yl]amino}-1,2-thiazole-4-carboxamide] | ≥ 20 |
| Cc1nsc(Nc2cnc(C(F)(F)F)cn2)c1C(=O)Nc1ccc(N2CCN(CC(F)F)CC2)cn1 [Example 372, N-{5-[4-(2,2-difluoroethyl)piperazin-1-yl]pyridin-2-yl}-3-methyl-5-{[5-(trifluoromethyl)pyrazin-2-yl]amino}-1,2-thiazole-4-carboxamide] | > 20 |
| Cc1nsc(Nc2cnc(C(F)(F)F)cn2)c1C(=O)Nc1ccc(N2CCN(CCC(F)(F)F)CC2)cn1 [Example 374, 3-methyl-5-{[5-(trifluoromethyl)pyrazin-2-yl]amino}-N-{5-[4-(3,3,3-trifluoropropyl)piperazin-1-yl]pyridin-2-yl}-1,2-thiazole-4-carboxamide] | > 20 |

Now from value to compound:

| IC50 [µM] | SMILES |
| --- | --- |
| ≥ 20 | Cc1nsc(Nc2cnc(C(F)(F)F)cn2)c1C(=O)Nc1ccc(O[C@@H]2CCCN(CCC(F)(F)F)C2)nc1 [Example 387, 3-methyl-5-{[5-(trifluoromethyl)pyrazin-2-yl]amino}-N-(6-{[(3R)-1-(3,3,3-trifluoropropyl)piperidin-3-yl]oxy}pyridin-3-yl)-1,2-thiazole-4-carboxamide] |
| > 20 | Cc1nsc(Nc2cnc(C(F)(F)F)cn2)c1C(=O)Nc1ccc(OCC2CCN(CCF)CC2)nc1 [Example 344, N-(6-{[1-(2-fluoroethyl)piperidin-4-yl]methoxy}pyridin-3-yl)-3-methyl-5-{[5-(trifluoromethyl)pyrazin-2-yl]amino}-1,2-thiazole-4-carboxamide] |
| ≥ 20 | Cc1nsc(Nc2cnc(C(F)(F)F)cn2)c1C(=O)Nc1ccc(OCC2CCCN(CC(F)F)C2)nc1 (centres unmarked) [Example 327, N-(6-{[1-(2,2-difluoroethyl)piperidin-3-yl]methoxy}pyridin-3-yl)-3-methyl-5-{[5-(trifluoromethyl)pyrazin-2-yl]amino}-1,2-thiazole-4-carboxamide] |
| ≥ 20 | Cc1nsc(Nc2cnc(C(F)(F)F)cn2)c1C(=O)Nc1ccc(OCC2CCCN(CCF)C2)nc1 (centres unmarked) [Example 325, N-(6-{[1-(2-fluoroethyl)piperidin-3-yl]methoxy}pyridin-3-yl)-3-methyl-5-{[5-(trifluoromethyl)pyrazin-2-yl]amino}-1,2-thiazole-4-carboxamide] |
